According to patent US20210145774A1, “Treatment of alcoholic liver disease” (CymaBay Therapeutics, Inc., priority 2019, published 2021):

Key:
PPARα = molecular target: T1, PPARα (Homo sapiens, UniProt Q07869); test: Specificity compared with PPARα
T1 sequence (Q07869 1-468): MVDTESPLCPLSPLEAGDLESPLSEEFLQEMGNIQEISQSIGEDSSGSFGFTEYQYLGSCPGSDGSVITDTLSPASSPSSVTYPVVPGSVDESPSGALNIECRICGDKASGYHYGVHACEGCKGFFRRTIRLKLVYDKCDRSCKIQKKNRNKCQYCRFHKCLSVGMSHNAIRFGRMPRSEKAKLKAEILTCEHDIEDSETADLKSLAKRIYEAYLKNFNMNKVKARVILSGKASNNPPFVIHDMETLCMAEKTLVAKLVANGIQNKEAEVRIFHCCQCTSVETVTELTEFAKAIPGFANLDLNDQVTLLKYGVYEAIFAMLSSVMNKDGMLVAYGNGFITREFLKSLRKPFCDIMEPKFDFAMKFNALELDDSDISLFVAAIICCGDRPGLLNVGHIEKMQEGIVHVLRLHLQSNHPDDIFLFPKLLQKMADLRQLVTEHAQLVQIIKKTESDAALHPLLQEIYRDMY
Excerpt: It is specific (>600-fold and>2500-fold compared with PPARα and peroxisome proliferator-activated receptor-γreceptors). PPARδ activation stimulates fatty acid oxidation and utilization, improves plasma lipid and lipoprotein metabolism, glucose utilization, and mitochondrial respiration, and preserves stem cell homeostasis.

[1] = system: wild-type female C57BL/6 mice; test: Lieber-DeCarli ethanol diet mouse model of alcoholic liver disease; format: in vivo; details: for liver histology, hematoxylin and eosin (H+E): formalin-fixed liver sections; for hepatic lipid accumulation, oil red staining: frozen liver sections; for ALT: plasma; for ALT / Total bile acids / Hepatic TGs / Plasma LPS / FA (fecal albumin): mean (SEM); for Total bile acids: LC-MS; for FA (fecal albumin): feces at 7.5 weeks
Excerpt: Age-matched wild-type female C57BL/6 mice (Charles River, Wilmington, Mass.), 8-9 weeks old at the initiation of the study, were used.
The Lieber-DeCarli ethanol diet was originally developed by Charles Lieber and Leonore DeCarli in 1963. This diet allows for the prolonged exposure of ethanol in a rodent model and allows for modification to calories provided by ethanol. […] The caloric intake from ethanol was 0% on day 1, 10% on days 2 and 3, 20% on days 4 and 5, 30% from day 6 until the end of 6 weeks, and 36% for the last 2 weeks, for a total in-life time of eight weeks. The ethanol-fed mice also received one bolus dose of 33% v/v ethanol at 5 g/Kg on the last in-life day. The control diet contained an isocaloric substitution of isomaltose for the ethanol. […] In the prevention portions of the study, including with the control diet, seladelpar was added throughout the entire study period; in the intervention portion of the study, seladelpar was added only for the fifth through eighth weeks. Fresh feces were collected at 7.5 weeks. All mice were sacrificed after eight weeks; the ethanol-fed mice eight hours after the ethanol bolus. At sacrifice, body and liver weight were recorded; and blood/plasma, liver, gallbladder, small and large intestine (wall and contents) and cecum were harvested. Analyses included plasma ALT—to measure […]; hepatic TGs; plasma lipopolysaccharides (LPS)—to measure the extent of bacterial leakage from the intestine into the blood; fecal albumin (FA)—to measure the extent of albumin leakage from the blood into the intestine (feces); and total bile acids, measured by liquid chromatography-mass spectrometry (LC-MS) generally according to the method described in Hartmann et al., “Modulation of the Intestinal Bile Acid/Farnesoid X Receptor/Fibroblast Growth Factor 15 Axis Improves Alcoholic Liver Disease in Mice”, Hepatology, 67(6), 2150-2166 (2018).
The study results are given in the table below: standard errors of the means are in parentheses, n denotes the number of mice measured, and ANOVA denotes the significance value of an ANOVA analysis between groups 3, 4, and 5:
Formalin-fixed liver sections were stained for histological examination with hematoxylin and eosin (H+E).
Frozen liver sections were cut and stained with oil red 0 for hepatic lipid accumulation analysis.

[2] = system: subjects with diagnosed alcoholic liver disease (alcoholic fatty liver); test: Clinical (oral), subjects with alcoholic fatty liver; format: in vivo, human; details: oral 2-100 mg/day for 6 months
Description: Subjects are permitted their usual other medications (e.g. antidiabetic medications such as metformin or […]) but not glitazones, PPAR agonists, OCA, or similar medications. […] At each visit, after a 12-hour fast, blood is drawn and urine collected; and a standard metabolic panel, complete blood count, and standard urinalysis are performed. Blood is analyzed for bilirubin, creatinine, prothrombin time (International Normalized Ratio—INR), TGs, and liver transaminases. The subjects also maintain health diaries, which are reviewed at each visit.

[3] = system: subjects with diagnosed alcoholic liver disease (acute alcoholic hepatitis); test: Clinical (intravenous), subjects with acute alcoholic hepatitis; format: in vivo, human; details: intravenous 2-100 mg/day for up to 30 days
Description: At each assessment blood is drawn; and a standard metabolic panel and complete blood count are performed. Blood is analyzed for bilirubin, creatinine, prothrombin time (International Normalized Ratio—INR), TGs, liver transaminases, high sensitivity C-reactive protein (hsCRP), interleukin-18, and TNF-α.

[4] = system: atherogenic diet-fed obese diabetic (Alms1 mutant (foz/foz)) mice; details: foz/foz mice on atherogenic diet; cited from earlier work
[5] = alcohol diet (group 3 vs groups 4 and 5, prevention and intervention)
[6] = alcohol diet, untreated group 3 vs seladelpar groups 4 and 5, ANOVA <0.001
[7] = group 2: control diet with seladelpar prevention, 10 mg/Kg/day oral, 8 weeks

SMILES: CCO[C@H](COc1ccc(C(F)(F)F)cc1)CSc1ccc(OCC(=O)O)c(C)c1 [seladelpar, [4-({(2R)-2-ethoxy-3-[4-(trifluoromethyl)phenoxy]propyl}sulfanyl)-2-methylphenoxy]acetic acid]
- specificity for PPARδ compared with PPARα (PPARα): > 600 fold
- liver histology, hematoxylin and eosin (H+E) [1, 5]: significant reduction of steatosis and restoration of a more normal architecture
- hepatic lipid accumulation, oil red staining [1, 5]: significant reduction of stainable lipid droplets
- change in serum ALT ([1]; alcohol diet, untreated group 3 vs seladelpar groups 4 and 5 (prevention and intervention), ANOVA <0.001): significant reductions (improvements)
- change in serum LPS ([1]; alcohol diet, untreated group 3 vs seladelpar groups 4 and 5, ANOVA 0.034): significant reductions (improvements)
- change in hepatic TGs [1, 6]: significant reductions (improvements)
- change in total bile acids [1, 6]: significant reductions (improvements)
- liver histology, hematoxylin and eosin (H+E) ([1]; control diet (groups 1 vs 2)): no significant change
- hepatic lipid accumulation, oil red staining ([1]; control diet (groups 1 vs 2)): no significant change
- effect on ALT, hepatic TGs, LPS, fecal albumin and total bile acids ([1]; control diet groups, seladelpar prevention (group 2 vs 1)): does not significantly affect
- ALT ([1]; group 2: control diet with seladelpar prevention, 10 mg/Kg/day oral in diet for 8 weeks): 20.8 (3.5) U/L
- Total bile acids [1, 7]: 14.2 (0.6) μmol/100 g body weight
- Hepatic TGs [1, 7]: 18.9 (1.8) mg/g
- Plasma LPS [1, 7]: 787 (108) ng/mL
- FA (fecal albumin) ([1]; group 2: control diet with seladelpar prevention, 10 mg/Kg/day oral): 95 (12) ng/mg
- ALT ([1]; group 4: ethanol diet with seladelpar prevention, 10 mg/Kg/day oral in diet for 8 weeks, untreated ethanol group 3: 83.3 (16.7)): 37.8 (4.1) U/L
- Total bile acids ([1]; group 4: ethanol diet with seladelpar prevention, 10 mg/Kg/day oral, 8 weeks, group 3: 23.7 (1.6)): 16.5 (1.1) μmol/100 g body weight
- Hepatic TGs ([1]; group 4: ethanol diet with seladelpar prevention, 10 mg/Kg/day oral, 8 weeks, group 3: 29.6 (2.0)): 21.8 (1.3) mg/g
- Plasma LPS ([1]; group 4: ethanol diet with seladelpar prevention, 10 mg/Kg/day oral, 8 weeks, group 3: 1064 (204)): 723 (66) ng/mL
- FA (fecal albumin) ([1]; group 4: ethanol diet with seladelpar prevention, 10 mg/Kg/day oral, group 3: 135 (15)): 98 (8) ng/mg
- FA (fecal albumin) ([1]; group 5: ethanol diet with seladelpar intervention, 10 mg/Kg/day oral from week 5, group 3: 135 (15)): 112 (9) ng/mg
- ALT ([1]; group 5: ethanol diet with seladelpar intervention, 10 mg/Kg/day oral in diet, weeks 5-8, untreated ethanol group 3: 83.3 (16.7)): 30.9 (4.1) U/L
- Total bile acids ([1]; group 5: ethanol diet with seladelpar intervention, 10 mg/Kg/day oral, weeks 5-8, group 3: 23.7 (1.6)): 16.0 (1.1) μmol/100 g body weight
- Hepatic TGs ([1]; group 5: ethanol diet with seladelpar intervention, 10 mg/Kg/day oral, weeks 5-8, group 3: 29.6 (2.0)): 20.5 (1.3) mg/g
- Plasma LPS ([1]; group 5: ethanol diet with seladelpar intervention, 10 mg/Kg/day oral, weeks 5-8, group 3: 1064 (204)): 634 (59) ng/mL
- improvement in disease (reductions in MRI-PDFF, TGs, liver transaminases) [2]: dose-related improvement
- improvement in disease (reduction in liver transaminases, hsCRP, interleukin-18, TNF-α, Maddrey's discriminant function, MELD score) [3]: dose-related improvement
- NASH pathology [4]: improves NASH pathology (reducing hepatic steatosis and inflammation, and improving fibrosis)
